Assay results published in PubChem BioAssay AID686920 (Broad Institute, 2013).
The source made the active and inactive calls.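 Rule for the calls: active = fitted curve reaching 35% inhibition at a dose no higher than twice the top valid tested dose; inconclusive = flat fit with 30 to 70% inhibition, or a poor fit; inactive = the rest, including activity in the opposite direction.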

Tested on: A673 NR0B1-luciferase reporter, viability-normalised luminescence
Test: suppressors of NR0B1-promoter luciferase reporter, dose response, EWS/Fli inhibitor project, luciferase luminescence, A673 cells, cherry-pick (AID 686920)
Conditions: not given

Row | SMILES | AC35 [µM]
1 | CO[C@H]1CN(C)C(=O)c2cc(NC(=O)NC(C)C)ccc2OC[C@H](C)N(Cc2ccc(-c3ccccn3)cc2)C[C@@H]1C | 5.22
2 | CCc1cccc2c(C(=O)CN3C(=O)NC4(CCCCC4)C3=O)c[nH]c12 | 14.1
3 | O=c1c(Cl)cc(Cl)nn1-c1ccccc1 | 8.95
4 | C[C@@H]1CN([C@@H](C)CO)C(=O)c2cc(NC(=O)c3ccccc3)ccc2O[C@@H](C)CCCCO[C@H]1CN(C)C(=O)Nc1cccc2ccccc12 | 0.873
5 | COc1ccccc1-c1ccc(OCCCN2CCC(C(O)(c3ccccc3)c3ccccc3)CC2)cc1 | 13.3
6 | COc1ccc(/C=C2\SC(=O)N(CCCC(=O)Nc3cc(Cl)ccc3C(=O)O)C2=O)cc1 | 0.169
7 | Nc1nc2cc3c(cc2cc1C(=O)NCCc1c[nH]c2ccccc12)OCO3 | 4.31
8 | CO[C@H]1CN(C)C(=O)c2cc(NC(=O)c3ccc(Oc4ccccc4)cc3)ccc2OC[C@H](C)NC[C@@H]1C | 26.5
9 | COc1ccc(C2=Nn3c([n+](C)c4ccccc43)SC2)cc1 | 46.5
10 | Cc1ccc(C(C(=O)NCc2ccco2)N(C(=O)CNC(=O)c2cccs2)c2c(C)cc(C)cc2C)cc1 (stereo unspecified) | 42
11 | C=C(C(=O)c1ccccc1)C(C(=C)C(=O)c1ccccc1)c1ccc(OC)cc1 | 4.37
12 | CN1c2ccc(-c3ccc(C#N)cc3)cc2[C@H]2[C@H](CCN2S(=O)(=O)c2cccc(F)c2)[C@@H]1CO | 4.64
13 | C[C@@H]1CN([C@@H](C)CO)C(=O)c2cc(NS(=O)(=O)c3ccc(F)cc3)ccc2O[C@@H]1CN(C)Cc1ccc(C(=O)Nc2ccccc2N)cc1 | 9.48
14 | COC(=O)C1=C(C)N(Cc2ccccc2C(F)(F)F)C(=NCc2ccc(OC)cc2)NC1c1ccc(C(F)(F)F)cc1 (stereo unspecified) | 29.9
15 | CCC(C)Cn1c(O)cc2nn(-c3nc4ccccc4s3)c(=O)c-2c1C (stereo unspecified) | 1.57
16 | CCc1nc(N)nc(N)c1-c1ccc(Cl)c(N=[N+]=[N-])c1 | 6.23
17 | COc1ccc2nc(-c3ccc(F)cc3)sc2c1 | 8.38
18 | C[C@H]1CCCCO[C@H](CN(C)Cc2ccc(C(F)(F)F)cc2)[C@@H](C)CN([C@@H](C)CO)C(=O)c2cc(NC(=O)Nc3ccccc3)ccc2O1 | 19.4
19 | COc1cccc(Sc2ccccc2/C=N/NC(N)=O)c1 | 2.17
20 | Nc1nc(N)c(-c2cccc(C(F)(F)F)c2)c(Cc2cccc(C(F)(F)F)c2)n1 | 2.54
21 | C[C@H]1O[C@@H](O[C@H]2[C@@H](O)C[C@H](O[C@H]3[C@@H](O)C[C@H](O[C@H]4CC[C@@]5(C)[C@H](CC[C@@H]6[C@@H]5C[C@@H](O)[C@]5(C)[C@@H](C7=CC(=O)OC7)CC[C@]65O)C4)O[C@@H]3C)O[C@@H]2C)C[C@H](O)[C@@H]1O | 0.0886
22 | Cc1csc(NC(=O)CCc2c(C)nc3cc(-c4ccc(Cl)cc4)nn3c2C)n1 | 0.284
23 | Cc1ccc(S(=O)(=O)Nc2ccc3c(c2)C(=O)N([C@H](C)CO)C[C@@H](C)[C@@H](CN(C)Cc2ccc(C(=O)Nc4ccccc4N)cc2)O3)cc1 | 9.6
24 | CC1(C)N=C(N)N=C(N)N1c1ccc(OCCCOc2ccccc2)c(Cl)c1 | 2.61
25 | CCOC(=O)Cc1csc(NC(=S)NC(=O)c2ccc(C)cc2)n1 | 0.265
26 | CN(C)c1ccc(C=c2c3ccccc3n3c2c2c([n+]3C)CCCC2)cc1 | 1.9

Row | SMILES | AC35 [µM]
27 | C[C@@H]1CCCCO[C@@H](CN(C)C(=O)Cc2ccccc2)[C@@H](C)CN([C@@H](C)CO)C(=O)c2cc(NS(=O)(=O)c3ccc(F)cc3)ccc2O1 | 43.9
28 | COc1ccc(/C=C2\SC(=O)N(CCCC(=O)Nc3ccc(C(=O)O)cc3)C2=O)cc1 | 0.504
29 | CN(C)c1ccc2c(c1)[C@@H]1C[C@@H](CC(=O)NCc3ccc(Oc4ccccc4)cc3)O[C@H](CO)[C@@H]1O2 | 5.8
30 | Cc1cccc(CN2C(=O)/C(=C\c3ccc(C(=O)NCCCN4CCN(C)CC4)cc3)Oc3ccccc32)c1 | 11.6
31 | CC(C)c1ccc(OCc2cccc(C(=O)N/N=C/c3cccnc3)c2)cc1 | 1.03
32 | CCCNC(=O)N1[C@H](C#N)[C@H](c2ccc(C#Cc3ccc(F)cc3)cc2)[C@H]1CO | 10.1
33 | Cc1sc2nc(CN3CCC(C)CC3)nc(Cl)c2c1C | 63
34 | O=C(C[C@@H]1CC[C@@H]2[C@H](COC[C@@H](O)CN2S(=O)(=O)c2ccc(F)cc2)O1)NCc1ccc(Cl)c(Cl)c1 | 61.8
35 | O=C(O)c1ccccc1C(=O)Nc1ccc(Oc2cccc3ccccc23)cc1 | 2.28
36 | O=c1c2ccccc2nc(/C=C/c2cc(Br)ccc2O)n1CCCO | 23.9
37 | N/C(=C\C(=O)c1cc(Cl)ccc1O)C(Cl)(Cl)Cl | 4.64
38 | COc1ccc(-c2sc3ccccc3c2-c2ccc(OCCN3CCCCC3)cc2)cc1 | 7.87
39 | CCc1ccc(/C=C2\SC(=S)N(CCCC(=O)Nc3cc(C)on3)C2=O)cc1 | 0.947
40 | Cc1[nH][nH]c(=O)c1C(c1c(C)[nH][nH]c1=O)c1cn(Cc2ccc(Cl)c(Cl)c2)c2ccccc12 | 4.99
41 | O=C(NC[C@@H]1N[C@@H](CO)[C@H]1c1ccc(C2=CCCCC2)cc1)c1cccc(F)c1 | 29.8
42 | OC[C@H]1[C@@H](c2ccc(C#CC3CCCC3)cc2)[C@@H]2CN(CCC(F)(F)F)CCCCN12 | 9.24
43 | COC(=O)Cc1[nH]n(-c2nc3ccccc3s2)c(=O)c1C(C)=Nc1ccc(OC)cc1 | 4.31
44 | COc1ccc(S(=O)(=O)N=Nc2c(O)[nH]c3ccccc23)cc1 | 34.7
45 | C[C@@H]1CN([C@H](C)CO)S(=O)(=O)c2ccc(C#CC(C)(C)O)cc2O[C@H]1CN(C)Cc1ccc(-c2ccccc2)cc1 | 4.22
46 | C[C@H]1CN([C@@H](C)CO)C(=O)Cc2cc(NC(=O)CCCCCC(=O)Nc3ccccc3N)ccc2O[C@H]1CN(C)Cc1ccc(Cl)c(Cl)c1 | 4.68
47 | Nc1ccc2c(c1)OC1(CCCC1)O2 | 6.63
48 | O=C(NCCc1ccccc1)c1ccccc1NC(=O)C1CCCO1 (stereo unspecified) | 6.89
49 | C[C@@H]1CN([C@@H](C)CO)C(=O)c2cccc(N(C)C)c2O[C@@H]1CN(C)Cc1ccc(C(=O)Nc2ccccc2N)cc1 | 39.8
50 | CCOc1cc(/C=N/Nc2cc(C)nc(-n3nc(C)cc3C)n2)ccc1O | 35.8
51 | O=C1c2ccc3c4c(ccc(c24)C(=O)N1c1cccc(O)c1)C(=O)N(c1cccc(O)c1)C3=O | 5.35
52 | Cc1cccc(N2CCN(C3C(=O)Nc4ccccc4-n4nnnc43)CC2)c1C (stereo unspecified) | 9.29

Row | SMILES | AC35 [µM]
53 | CC(=NNc1cc(C)c2ccccc2n1)c1ccccn1 | 8.23
54 | O=C(Nc1cccc(S(=O)(=O)N2CCCC2)c1)c1ccc(Cl)nc1 | 8.45
55 | Cc1cc(-c2nc3cc(F)ccc3s2)ccc1N | 8.89
56 | O=C(NC1CCCC1)N1CCCCN2[C@@H](CO)[C@@H](c3ccc(/C=C/c4ccccc4)cc3)[C@@H]2C1 | 14.3
57 | Nc1sc(-c2ccccc2)cc1-c1n[nH]c(=S)n1C1CCCCC1 | 3.67
58 | CC(=O)OC1CC(OC2C(O)CC(OC3C(O)CC(OC4CCC5(C)C(CCC6C5CCC5(C)C(C7=CC(=O)OC7)CCC65O)C4)OC3C)OC2C)OC(C)C1OC1OC(CO)C(O)C(O)C1O (stereo unspecified) | 0.0893
59 | CC(=O)N1CCCC(c2cc(C(=O)Nc3ccccc3)no2)C1 (stereo unspecified) | 2.06
60 | COc1ccc(NC(=O)N2CCCCN3[C@@H](CO)[C@H](c4ccc(C5=CCCCC5)cc4)[C@@H]3C2)cc1 | 15.8
61 | COC1C(O)C(C)OC(OC2CCC3(C)C(CCC4C3C(O)CC3(C)C(C5=CC(=O)OC5)CCC43O)C2)C1O (stereo unspecified) | 0.183
62 | COC(=O)C[C@H]1CC[C@H]2[C@H](COc3ccc(NC(=O)Nc4cccc(Cl)c4)cc3C(=O)N2C)O1 | 44.1
63 | C[C@@H]1CN([C@@H](C)CO)C(=O)c2cccc(NC(=O)CCCCCC(=O)Nc3ccccc3N)c2O[C@@H]1CN(C)Cc1ccc(Oc2ccccc2)cc1 | 6.74
64 | Cc1ccc(S(=O)(=O)Nc2ccc3c(c2)C(=O)N([C@@H](C)CO)C[C@H](C)[C@@H](CN(C)Cc2ccc(C(F)(F)F)cc2)OCCCC[C@@H](C)O3)cc1 | 10.2
65 | CN=c1scc(-c2cccs2)n1/N=C/c1ccccc1O | 0.298
66 | C=C1C(=O)C=C[C@]2(C)C[C@@H]3OC(=O)[C@](C)(O)[C@H]3C[C@@H]12 | 10.7
67 | CCCCCCCCNC(C)C(O)c1ccc(SC(C)C)cc1 (stereo unspecified) | 9.79
68 | COC1C(C)OC(OC2CC(C)(O)Cc3cc4c(c(O)c32)C(=O)c2c(O)cc3c(c2C4=O)OC2OC3(C)C(O)C(N(C)C)C2O)C(OC)C1(C)OC (stereo unspecified) | 0.0829
69 | C[C@H](CO)N1C[C@H](C)[C@H](CN(C)CC2CCCCC2)Oc2ccc(NC(=O)Nc3cccc4ccccc34)cc2C1=O | 43.3
70 | Cc1c(CC(=O)NCCCC(=O)O)c(=O)oc2cc3c(cc12)CCC(C)(C)O3 | 2.74
71 | C=C(C(=O)c1ccccc1)C(C)C(=C)C(=O)c1ccccc1 | 5.4
72 | CCc1ccc(S(=O)(=O)c2ccc(-n3nc(C)cc3N)cc2)cc1 | 31.4
73 | CCc1cnc(N2[C@H](C#N)[C@H](c3ccc(C#Cc4ccccc4F)cc3)[C@H]2CO)s1 | 9.23
74 | OC[C@H]1O[C@@H](n2cnc3c(NCc4ccco4)ncnc32)[C@H](O)[C@@H]1O | 4.99
75 | COc1ccc(/C=C/C(=O)c2cc(F)ccc2OC(=O)c2ccccc2OC)cc1OC | 1.59
76 | CC(=O)c1ccc(N=C2C(=O)Nc3ccccc32)cc1 | 19.3

Tested on: not listed separately
Test: as above
Conditions: A673 NR0B1-luciferase reporter, viability-normalised luminescence; at 21 µM (top of the series)

Row | SMILES | activity change, negative = inhibition
77 | O=C1CCCC2=C1C(c1ccccn1)Nc1ccc(C(=O)c3ccccc3)cc1N2 (stereo unspecified) | 8.98% (inactive)
78 | Cc1ccc(Cc2c(-c3ccco3)nc3c(C)cc(Br)cn23)cc1 | 77.8% (inactive)

Same assay, conditions: A673 NR0B1-luciferase reporter, viability-normalised luminescence; at 68 µM (top of the series)

Row | SMILES | activity change, negative = inhibition
79 | COc1ccc(OC)c(-c2cc(C(F)(F)F)c3c(n2)sc2c(O)cc(=O)[nH]c23)c1 | 5.23% (inactive)
80 | COC(=O)C[C@@H]1CC[C@@H]2[C@H](COc3ccc(NC(=O)Nc4cccc(C#N)c4)cc3C(=O)N2C)O1 | -24.9% (inactive)
81 | Nc1ncn([C@@H]2O[C@H](CO)[C@@H](O)[C@H]2O)c(=O)n1 | -32.1% (inactive)
82 | COC(=O)C[C@@H]1CC[C@@H]2[C@H](COc3ccc(NC(=O)Nc4cccc(Cl)c4)cc3C(=O)N2C)O1 | -19.3% (inactive)
83 | COC(=O)C[C@@H]1CC[C@@H]2[C@H](COc3ccc(NC(=O)c4ccc(F)cc4)cc3C(=O)N2C)O1 | -47% (inactive)
84 | COC(=O)C[C@H]1CC[C@H]2[C@@H](COc3ccc(NC(=O)Nc4cccc(Cl)c4)cc3C(=O)N2C)O1 | 18.6% (inactive)
85 | COc1ccc(-c2cn(-c3ccc(OC)cc3)c3[n+]2-c2ccccc2CC3)cc1 | -21.1% (inactive)
86 | Cc1noc(C)c1C(=O)Nc1sccc1C(N)=O | 20.7% (inactive)
